The test system of this assay is HCV replication. Kind of assay: Replicon Assay (Huh-lucubineo-ET cells, luciferase readout). Format: cell-based. The note with it: Hepatitis C virus; ET (Huh-lucubineo-ET) HCV replicon cell line; luciferase activity 48-72 hours after compound addition; 6 dilutions. In a few lines:
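Huh-lucubineo-ET cells stably carrying a firefly luciferase-ubiquitin-neo/NS3-5B ET replicon (adaptive mutations E1202G, T1280I, K1846T) were plated 24 h before compound, then treated at 5 or 50 μM or six 3-fold dilutions. Luciferase read 48-72 h later; % inhibition vs no-compound control, EC50/TC50 from Hill-equation fit.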
(In antiviral work, replicon cells carry a viral genome segment that copies itself.)

SMILES strings stand for the structures.

Compound `Fc1cccc(-c2nc3cnn(Cc4ccc(-c5ccccc5)cc4)cc-3n2)c1F` [Compound 282, 5-Biphenyl-4-ylmethyl-2-(2,3-difluoro-phenyl)-5H-imidazo[4,5-d]pyridazine] came in with a concentration giving a half-maximal response (EC50) of 0.69 µM. On to `CCc1ccc(-c2ccc(Cn3cc4nc(-c5cccc(F)c5F)nc-4cn3)nn2)cc1` [Compound 206, 2-(2,3-Difluoro-phenyl)-5-[6-(4-ethyl-phenyl)-pyridazin-3-ylmethyl]-5H-imidazo[4,5-d]pyridazine], for which the concentration giving a half-maximal response (EC50) is not below 50 µM.

`CCCOc1ccc(-c2ccc(Cn3cc4nc(-c5cccc(F)c5F)nc-4cn3)cc2)cc1` [Compound 109, 2-(2,3-Difluoro-phenyl)-5-(4′-propoxy-biphenyl-4-ylmethyl)-5H-imidazo[4,5-d]pyridazine] registered a 50% effective concentration (EC50) of 30 µM. `Fc1cccc(-c2nc3cnn(Cc4ccc(N5CCCCC5)cc4)cc-3n2)c1F` [Compound 304, 2-(2,3-Difluoro-phenyl)-5-(4-piperidin-1-yl-benzyl)-5H-imidazo[4,5-d]pyridazine] showed an EC50 of 3.87 µM. Against the preceding compound, the EC50 is about 7.8-fold lower. Regarding `COc1ccc(-c2ccc(Cn3cc4nc(-c5cccc(F)c5F)nc-4cn3)c(C)n2)c(C(F)(F)F)c1` [Compound 224, 2-(2,3-Difluoro-phenyl)-5-[6-(4-methoxy-2-trifluoromethyl-phenyl)-2-methyl-pyridin-3-ylmethyl]-5H-imidazo[4,5-d]pyridazine], the response was half-maximal at 0.281 µM (EC50). With `COc1ccc(-c2ccc(Cn3cc4nc(-c5cccc(F)c5F)nc-4cn3)cn2)c(C(F)(F)F)c1` [Compound 235, 2-(2,3-Difluoro-phenyl)-5-[6-(4-methoxy-2-trifluoromethyl-phenyl)-pyridin-3-ylmethyl]-5H-imidazo[4,5-d]pyridazine] the figure was 0.01 µM.

For the compound `COC(=O)c1cc(Cn2cc3nc(-c4cccc(F)c4F)nc-3cn2)ccc1-c1ccc(OC)cc1C(F)(F)F` [Compound 288, 4-[2-(2,3-Difluoro-phenyl)-imidazo[4,5-d]pyridazin-5-ylmethyl]-4′-methoxy-2′-trifluoromethyl-biphenyl-2-carboxylic acid methyl ester], the EC50 amounted to 0.2 µM. Take `CC(C)Oc1ccc(-c2ccc(Cn3cc4nc(-c5cccc(F)c5F)nc-4cn3)nn2)cc1` [Compound 209, 2-(2,3-Difluoro-phenyl)-5-[6-(4-isopropoxy-phenyl)-pyridazin-3-ylmethyl]-5H-imidazo[4,5-d]pyridazine]: the EC50 is not below 50 µM. For `COc1ccc(-c2ccc(Cn3cc4nc(-c5cccc(F)c5F)nc-4cn3)c(OCCCN3CCOCC3)c2)c(C(F)(F)F)c1` [Compound 349, 2-(2,3-Difluoro-phenyl)-5-[4′-methoxy-3-(3-morpholin-4-yl-propoxy)-2′-trifluoromethyl-biphenyl-4-ylmethyl]-5H-imidazo[4,5-d]pyridazine], the concentration giving a half-maximal response (EC50) was 6.26 µM. Turning to `CC(c1ccc(-c2ccc(C(F)(F)F)cc2C(F)(F)F)cn1)n1cc2nc(-c3cccc(F)c3F)nc-2cn1` (centres unmarked) [Compound 305, 5-{1-[5-(2,4-Bis-trifluoromethyl-phenyl)-pyridin-2-yl]-ethyl}-2-(2,3-difluoro-phenyl)-5H-imidazo[4,5-d]pyridazine], the concentration for a half-maximal effect (EC50) turned out to be 0.278 µM. For `COc1ccc(-c2ccc(Cn3cc4nc(-c5cccc(F)c5F)nc-4cn3)nc2O)c(C(F)(F)F)c1` [Compound 359, 6-[2-(2,3-Difluoro-phenyl)-imidazo[4,5-d]pyridazin-5-ylmethyl]-3-(4-methoxy-2-trifluoromethyl-phenyl)-pyridin-2-ol] the value was 2.23 µM; for `COc1ccc(-c2ccc(Cn3cc4nc(-c5cccc(F)c5F)nc-4cn3)nc2)c(C(F)(F)F)c1` [Compound 243, 2-(2,3-Difluoro-phenyl)-5-[5-(4-methoxy-2-trifluoromethyl-phenyl)-pyridin-2-ylmethyl]-5H-imidazo[4,5-d]pyridazine], 0.017 µM; for `CCCOc1ccc(-c2ccc(Cn3cc4nc(-c5cccc(F)c5F)nc-4cn3)cc2[N+](=O)[O-])cc1` [Compound 260, 2-(2,3-Difluoro-phenyl)-5-(2-nitro-4′-propoxy-biphenyl-4-ylmethyl)-5H-imidazo[4,5-d]pyridazine], 0.146 µM.

As for `COc1ccc(-c2ccc(Cn3cc4nc(-c5cccc(F)c5F)nc-4cn3)nn2)c(Cl)c1` [Compound 228, 5-[6-(2-Chloro-4-methoxy-phenyl)-pyridazin-3-ylmethyl]-2-(2,3-difluoro-phenyl)-5H-imidazo[4,5-d]pyridazine], the EC50 is 0.112 µM. Consider `Cc1ccc(-c2ccc(Cn3cc4nc(-c5cccc(F)c5F)nc-4cn3)cn2)c(C(F)(F)F)c1` [Compound 376, 2-(2,3-Difluoro-phenyl)-5-[6-(4-methyl-2-trifluoromethyl-phenyl)-pyridin-3-ylmethyl]-5H-imidazo[4,5-d]pyridazine], for which the EC50 is 0.131 µM. The EC50 values of the last two compounds are within 1.5-fold of each other. For `Cc1ccc(-c2ccc(Cn3cc4nc(-c5cccc(F)c5F)nc-4cn3)nn2)cc1` [Compound 211, 2-(2,3-Difluoro-phenyl)-5-(6-p-tolyl-pyridazin-3-ylmethyl)-5H-imidazo[4,5-d]pyridazine] the value was 3.47 µM; for `Fc1cccc(-c2nc3cnn(Cc4ccc5ccccc5c4)cc-3n2)c1F` [Compound 278, 2-(2,3-Difluoro-phenyl)-5-naphthalen-2-ylmethyl-5H-imidazo[4,5-d]pyridazine], not below 50 µM; for `CCCOc1ccc(-c2ccc(Cn3cc4nc(-c5ccccc5F)nc-4cn3)cn2)c(C(F)(F)F)c1` [Compound 323, 2-(2-Fluoro-phenyl)-5-[6-(4-propoxy-2-trifluoromethyl-phenyl)-pyridin-3-ylmethyl]-5H-imidazo[4,5-d]pyridazine], 0.033 µM.

For `Fc1cccc(-c2nc3cnn(Cc4ccc5nsnc5c4)cc-3n2)c1F` [Compound 276, 5-Benzo[1,2,5]thiadiazol-5-ylmethyl-2-(2,3-difluoro-phenyl)-5H-imidazo[4,5-d]pyridazine], the EC50 is not below 50 µM. With `Fc1cccc(-c2nc3cnn(Cc4ccc(-c5ccc(C(F)(F)F)cc5)cc4)cc-3n2)c1F` [Compound 225, 2-(2,3-Difluoro-phenyl)-5-(4′-trifluoromethyl-biphenyl-4-ylmethyl)-5H-imidazo[4,5-d]pyridazine] the figure was 13.7 µM; with `COc1ccc(-c2ccc(Cn3cc4nc(-c5cccc(F)c5F)nc-4cn3)c([N+](=O)[O-])c2)c(C(F)(F)F)c1` [Compound 201, 2-(2,3-Difluoro-phenyl)-5-(4-methoxy-3-nitro-2-trifluoromethyl-biphenyl-4-ylmethyl)-5H-imidazo[4,5-d]pyridazine], 0.05 µM.

As for `FCCCOc1ccc(-c2ccc(Cn3cc4nc(-c5cccc(F)c5F)nc-4cn3)nn2)c(C(F)(F)F)c1` [Compound 351, 2-(2,3-Difluoro-phenyl)-5-{6-[4-(3-fluoro-propoxy)-2-trifluoromethyl-phenyl]-pyridazin-3-ylmethyl}-5H-imidazo[4,5-d]pyridazine], the response was half-maximal at 0.025 µM (EC50).

`COc1ccc(-c2ccc(Cn3cc4nc(-c5cccc(F)c5F)nc-4cn3)nn2)c(C(F)(F)F)c1` [Compound 238, 2-(2,3-Difluoro-phenyl)-5-[6-(4-methoxy-2-trifluoromethyl-phenyl)-pyridazin-3-ylmethyl]-5H-imidazo[4,5-d]pyridazine] came in with an EC50 of 0.006 µM.

For orientation: EC50 means the concentration that produces a half-maximal response. Higher therefore signals weaker potency.
